Data published in patent US6710049B2, “Azole compounds as anti-fungal agents” (Ranbaxy Laboratories Limited, priority 2000, dated 2004).
Values after ≈ are worked out from the molar mass of the structure shown.

What was measured:
All fungal pathogens = test: Comparative in vitro MIC, isolate panel; assay type: cell-based
Text: (§1) The in-vitro evaluation of the antifungal activity of the compounds can be performed by determining the minimum inhibitory concentration (MIC) as shown in Table 1 which is the concentration of the test compound in Rosewell Park Memorial Institute (RPMI) 1640 liquid medium buffered with 3-(Morpholino)propanesulphonic acid (MOPS) to pH 7, at which there is significant inhibition of the particular fungi. In practice the National Committee for Clinical Laboratory Standard (NCCLS) M27A document for Candida and Cryptococcus and M38P for Aspergillus was used to determine the MIC against yeast and filamentous fungi with suitable modifications for dermatophytes to other filamentous fungi. Three quality control strains were included each time the MIC were determined and readings recorded only when the Quality Control results fell into the acceptable range. After MIC results had been recorded, 100 μl from each of the well showing no growth was spread over Sabouraud Dextrose Agar (SDA) to determine the minimum fungicidal concentration (MFC) as shown in Table 2.
(§2) A comparative in vitro and in vivo biologically activity data of the compound of our invention, 2-{[1R,2R]-2-(2,4-Difluorophenyl)-2-hydroxy-1-methyl-3-(1H-1,2,4-triazole-1-yl)propyl}-4-[(2′,2′,3′,3′-tetrafluoropropoxyphenyl)-3-(2H,4H)-1,2,4-thiotriazolone (Compound No. 3) with 2-[(1R,2R)-2-(2,4-difluorophenyl)-2-hydroxy-1-methyl-3-(1H-1,2,4-triazol-1-yl)propyl]-4-(2′,2′,3′,3′-tetraflouropropoxyphenyl)-3(2H,4H)-1,2,4-triazolone (TAK 187) and standard antifungal pharmaceuticals is given below: […]

[1] = test system: Aspergillus fumigatus isolates; test: Comparative in vitro MIC, isolate panel; assay type: cell-based
Text: as §1, §2

[2] = test system: Penicillium spp. isolates; test: Comparative in vitro MIC, isolate panel; assay type: cell-based
Text: as §1, §2

All Candida isolates = test: Comparative in vitro MIC, isolate panel; assay type: cell-based
Text: as §1, §2

Fusarium spp. isolates = test: Comparative in vitro MIC, isolate panel; assay type: cell-based
Text: as §1, §2

Rhizoupus spp. isolates = test: Comparative in vitro MIC, isolate panel; assay type: cell-based
Text: as §1, §2

All Filamentous isolates = test: Comparative in vitro MIC, isolate panel; assay type: cell-based
Text: as §1, §2

Aspergillus fumigatous = test: In vivo anti-fungal activity, ED50 in systemically infected mice; parameters: species or system Swiss albino mice; conditions: mice infected i.v. with Aspergillus fumigatous, dosing for five days
Procedure: The in-vivo evaluation of the compound can be carried out at a series of dose levels by oral or I. V. injection to mice which are inoculated I.V. with the minimum lethal dose of Candida albicans, Cryptococcus neoformans or Aspergillus fumigatus by the tail vein. Activity is based on the survival of a treated group of mice after the death of an untreated group of mice. For Aspergillus and Cryptococcus infections, target organs were cultured after treatment to document the number of mice cured of the infection for further assessment of activity.
Method: Briefly, Swiss albino mice weighing 20±2 G were injected intravenously (tail vein) with sufficient fungal cells to kill 100% of the untreated animals for Aspergillus fumigatous strain used. In all cases each group comprised of six mice. Five does levels, utilizing doubling dilution range, were employed per determination ranging from 25 to 1.56 mg/kg BW. Dosing was carried out for five days starting after 30 minutes of infection. […] Treated animals were monitored twice daily for 14 days post infection at which time the experiment was terminated and ED50 was calculated.

T. rubrum = test: Activity against dermatophytes; assay type: cell-based; parameters: unit not given here
Text: as §1, §2

T. mentagrophyte = test: Activity against dermatophytes; assay type: cell-based; parameters: unit not given here
Text: as §1, §2

[3] = test system: filamentous species of fungi; test: Activity against filamentous fungi (statement in words); assay type: cell-based
Text: as §1

[4] = serum drug concentration after several days of treatment 25 to 100 times above the MIC for C. neoformans; cited from earlier work

What does the source list for C[C@@H](n1ncn(-c2ccc(OCC(F)(F)C(F)F)cc2)c1=S)[C@](O)(Cn1cncn1)c1ccc(F)cc1F [Compound No. 3]?
MIC50 (All fungal pathogens): 0.25 µg/mL (≈ 0.448 µM); MIC90 (All fungal pathogens): 2 µg/mL (≈ 3.58 µM); MIC G.M. (All fungal pathogens): 0.285 µg/mL (≈ 0.51 µM); MIC50 [1]: 0.125 µg/mL (≈ 0.224 µM); MIC90 [1]: 0.25 µg/mL (≈ 0.448 µM); MIC G.M. [1]: 0.112 µg/mL (≈ 0.201 µM); MIC50 [2]: 2 µg/mL (≈ 3.58 µM); MIC90 [2]: 8 µg/mL (≈ 14.3 µM); MIC G.M. [2]: 1.516 µg/mL (≈ 2.71 µM); MIC50 (All Candida isolates): 0.5 µg/mL (≈ 0.895 µM); MIC90 (All Candida isolates): 1 µg/mL (≈ 1.79 µM); MIC G.M. (All Candida isolates): 0.1 µg/mL (≈ 0.179 µM); MIC50 (Fusarium spp. isolates): 8 µg/mL (≈ 14.3 µM); MIC90 (Fusarium spp. isolates): 8 µg/mL (≈ 14.3 µM); MIC G.M. (Fusarium spp. isolates): 8 µg/mL (≈ 14.3 µM); MIC50 (Rhizoupus spp. isolates): 0.125 µg/mL (≈ 0.224 µM); MIC90 (Rhizoupus spp. isolates): 0.125 µg/mL (≈ 0.224 µM); MIC G.M. (Rhizoupus spp. isolates): 0.125 µg/mL (≈ 0.224 µM); MIC50 (All Filamentous isolates): 0.25 µg/mL (≈ 0.448 µM); MIC90 (All Filamentous isolates): 8 µg/mL (≈ 14.3 µM); MIC G.M. (All Filamentous isolates): 0.328 µg/mL (≈ 0.587 µM); ED50 (Aspergillus fumigatous; Day 7 post infection): 2.33 mg/kg body weight; ED50 (Aspergillus fumigatous; Day 14 post infection): 6.25 mg/kg body weight; Activity against dermatophytes (T. rubrum): 0.004; Activity against dermatophytes (T. mentagrophyte): 0.016; activity against clinically important filamentous species of fungi [3]: unexpectedly potent activity; fungicidal character ([3]; b38: against some filamentous fungi): fungicidal

For CC[C@@H]([C@H](C)O)n1ncn(-c2ccc(N3CCN(c4ccc(OC[C@@H]5CO[C@@](Cn6cncn6)(c6ccc(F)cc6F)C5)cc4)CC3)cc2)c1=O [SCH 56592], which “detectability in CSF” value [4] is on record?
The value was “undetectable”.

With CN(C/C=C/C#CC(C)(C)C)Cc1cccc2ccccc12 [Terbina] as the molecule, how does the Activity against dermatophytes (T. rubrum) read?
Its Activity against dermatophytes is 0.016.

And the Activity against dermatophytes (T. mentagrophyte)?
Its Activity against dermatophytes is 0.002.
